Results from patent US20230202982A1, “5-CHLORO-4-HYDROXY-1-METHYL-2-OXO-N-PHENYL-QUINOLINE-3-CARBOXAMIDE POTASSIUM SALT FOR TREATING INFLAMMATORY BOWEL DISEASES” (Aqilion AB, priority 2020, published 2023).
Converted amounts (≈) assume the structure as drawn. “Also recorded” adds a separate entry of the source. Where a name gives a salt, the structure may show the parent alone.

Key:
[1] = Slurry in water for 48 hours, re-examined by XRPD (disproportionation); assay type: physicochemical; conditions: slurry in water 20 mg / 400 uL, ambient temperature
Procedure: When a sample of Example compound 1 was stored in a slurry in water at 20 mg / 400uL for 48 hours at ambient temperature, recovered, dried by evaporation and re-examined by XRPD, there was no change in the X-ray diffractogram.

[2] = Hygroscopicity by Dynamic Vapour Sorption (DVS); assay type: physicochemical; conditions: 25° C.; for Hygroscopicity: DVS, 0 to 90% RH; for Reversible weight gain (DVS): analysed to 80% RH
Procedure: Dynamic Vapour Sorption (DVS) analysis was carried out on a sample of Example compound 1.
Approximately 20 mg of sample was placed into a wire-mesh vapour sorption balance pan and loaded into an ‘IgaSorp’ vapour sorption balance (Hiden Analytical Instruments). The sample was then dried by maintaining a 0% humidity environment until no further weight change was recorded.
The sample was then subjected to a step profile from 0 to 90% RH at 10% RH increments. The desorption isotherm was from 90% RH o 0% RH in 10% RH steps. The weight change during the sorption/desorption cycles were then monitored, allowing for the hygroscopic nature of the sample to be determined. Analysis was performed using the following parameters: • Analysis Mode F1 • Wait Time 99% • Sample Temperature 25° C. • Min Time Out 30 Mins • MaxTime Out 180 Mins • Gas Flow Rate 250 ml/min

[3] = Thermogravimetric analysis (TGA) and differential scanning calorimetry (DSC); assay type: physicochemical; conditions: heating 20° C./min, nitrogen
Procedure: For the TGA analysis, approximately 5-10 mg of sample of Example Compound 1 was accurately weighed into a pierced Tzero aluminium pan and sealed with a pinhole lid using a crimper. The sample was then loaded into the chamber of a TGA thermal analyser at ambient temperature. A TA Instruments TGA5500 device was used. The sample was then heated at a rate of 20° C./min from 20° C. to 400° C. The purge gas used was nitrogen at a flow rate of 50 cm^3/min.
For the DSC analysis, approximately 2 mg of sample was accurately weighed into a pierced Tzero aluminium pan and sealed using a universal crimper. The sample was then loaded into the chamber of a DSC analyser at ambient temperature. A TA Instruments DSC2500 device was used. The sample was then heated at a rate of 20° C./min from 30° C. to 400° C. The purge gas used was nitrogen at a flow rate of 50 cm^3/min

[4] = system: Ulcerative Colitis modelled by Dextran Sulphate Sodium (DSS); assay: DSS mouse model of Ulcerative Colitis; assay type: in vivo, C57B1/6 mice; conditions: 1 mg/kg daily oral; for Colitis clinical score: Day 9, vs vehicle-treated controls, FIG. 8; for Colon length: Day 10 termination, FIG. 10
Procedure: Ulcerative Colitis was modelled in C57B1/6 mice by administering Dextran Sulphate Sodium (DSS) in drinking water (1.5% w/v) for 5 days. Mice were monitored daily for weight loss and clinical symptoms of disease for 10 days starting at the beginning of DSS administration.
Anti-TNFα antibody was administered at 500 µg/treatment on Days 0, 2, 4, and 6. Following termination on Day 10, colons were removed and measured. The length and weight of the colon were also assessed.
Compared to naive animals, animals given DSS water developed clinical signs of disease including weight loss and diarrhoea as well as gross pathological signs of disease on experiment termination. […] Shortened length and increased weight:length ratio indicates edema associated with ulcerative colitis.

[5] = Solubility in PBS (pH 7.4) and simulated colonic fluid, saturated solutions by HPLC-UV; assay type: physicochemical; conditions: saturated solution, ambient temperature
Procedure: The solubility and stability at room temperature of Example compound 1 and the free acid compound 5-chloro-4-hydroxy-1-methyl-2-oxo-N-phenyl-quinoline-3-carboxamide (described in Example 1a) above) was determined in PBS (pH 7.4) and in simulated colonic fluid (SCF) at ambient temperature. The SCF was the product FaSSCof obtained from Biorelevant.com prepared according to the manufacturer’s instructions. FaSSCof contains 0.15 mM sodium cholate, 0.3 mM Phospholipids, 0.1 mM Oleate, 120 mM sodium hydroxide, 45 mM TRIS and 76 mM maleate.
Saturated solutions were prepared in these solvents and the concentrations/impurity profile was determined by HPLC-UV using a calibration curve in the range of 1 to 150 µg/ml at 300 nm or 320 nm. Visual evaluation was also performed after every step over the testing period.

[6] = listed as 5-chloro-4-hydroxy-1-methyl-2-oxo-N-phenyl-quinoline-3-carboxamide free acid

Compound	Stability in water slurry: change in X-ray diffractogram [1]	Hygroscopicity [2]	Reversible weight gain (DVS) [2]	Degradation temperature ([3]; listed as 5-chloro-4-hydroxy-1-methyl-2-oxo-N-phenyl-quinoline-3-carboxamide lithium salt, lithium salt)	Degradation temperature ([3]; listed as Example Compound 3, lithium salt)	Degradation temperature ([3]; listed as 5-chloro-4-hydroxy-1-methyl-2-oxo-N-phenyl-quinoline-3-carboxamide sodium salt, sodium salt)	Degradation temperature ([3]; listed as Example Compound 2, sodium salt)	Colitis clinical score [4]	Colitis clinical score [4, 6]	Colitis clinical score ([4]; listed as 5-chloro-4-hydroxy-1-methyl-2-oxoN-phenyl-quinoline-3-carboxamide free acid)	Colon length ([4]; vs vehicle-treated controls)	Colon length ([4]; vs vehicle-treated controls, listed as 5-chloro-4-hydroxy-1-methyl-2-oxo-N-phenyl-quinoline-3-carboxamide free acid)	Body weight change (% change from day 1 of experiment) ([4]; vs vehicle-treated controls, FIG. 9)	Degradation temperature [3]	Degradation temperature [3, 6] [°C]	Solubility in PBS (pH7.4) ([5]; PBS (pH 7.4), listed as 5-chloro-4-hydroxy-1-methyl-2-oxo-N-phenyl-quinoline-3-carboxamide free acid)	solubility ([5]; simulated colonic fluid (FaSSCof), fassgf or other biorelevant, thermodynamic from solid, SCF (FaSSCof), read-out: Solubility in simulated colonic fluid (SCF)) [µg/mL]
Cn1c(=O)c(C(=O)Nc2ccccc2)c([O-])c2c(Cl)cccc21.[Li+] [Example compound 3, 5-chloro-4-hydroxy-1-methyl-2-oxo-N-phenyl-quinoline-3-carboxamide lithium salt]	slight changes	slightly hygroscopic	less than 0.25%	around 360 °C	360 °C ±2 °C												
Cn1c(=O)c(C(=O)Nc2ccccc2)c(O)c2c(Cl)cccc21 [Example compound 2, 5-chloro-4-hydroxy-1-methyl-2-oxo-N-phenyl-quinoline-3-carboxamide sodium salt]	slight changes	slightly hygroscopic	1%			around 350 °C	350 °C ±2 °C										
Cn1c(=O)c(C(=O)Nc2ccccc2)c(O)c2c(Cl)cccc21 [Free Acid, 5-chloro-4-hydroxy-1-methyl-2-oxo-N-phenyl-quinoline-3-carboxamide]								protective effect against the development of the clinical symptoms	significant reduction	lower colitis score	effective at reducing colon shortening	significant increase; also recorded: greater colon length	reduced weight loss	260 °C ±2 °C	260	not quantifiable; also recorded: Non quantifiable	3.44 (≈ 10.5 µM)
